Laboratory results taken from paper PMC2363969, “gp100/pmel17 and tyrosinase encode multiple epitopes recognized by Th1-type CD4+T cells” (British Journal of Cancer, 2001).
Read-outs that look alike come from different tables or passages of the source. Where a SMILES comes first, the peptide text is derived from it. Where no end group is shown, it is not given here.

Tests used:
CD4+ T cells [1] = experiment: IFN-γ ELISPOT, normal donor CD4+ T cells after in vitro stimulation with peptide-pulsed autologous DC; type: cell-based, human; conditions: for T cell responses evaluated in ND-IVS (of 10): number of responding normal donors: normal HLA-DR4+ donors, n = 10, after 2 rounds of in vitro stimulation with autologous DC pulsed with peptide, IFN-γ ELISPOT
HLA-DRB1*0404 = HLA-DRB1*0404 (Homo sapiens, UniProt P01903+P01911, A100R/A169T/F76Y/I96L/K127E/L162R/M171V/N62H/P40V/Q125Y/R42H/S133A/S149N/S66Y/V209L/W38E); experiment: solid-state competitive-binding assay, purified HLA-DR4
HLA-DRB1*0401 = HLA-DRB1*0401 (Homo sapiens, UniProt P01903+P01911, A100K/A169T/F76Y/I96L/K127E/L162R/M171V/N62H/P40V/Q125Y/R42H/S133A/S149N/S66Y/V115G/V209L/W38E); experiment: as above
CD4+ T cells [2] = experiment: IFN-γ ELISPOT, freshly-isolated peripheral blood CD4+ T cells vs peptide-pulsed T2.DR4; type: cell-based, human; conditions: positive if above normal donor mean + 3 S.D.; for T cell responses evaluated in MEL (of 5): number of responding patients: HLA-DR4+ melanoma patients with active disease, n = 5, 20 h IFN-γ ELISPOT; for T cell responses evaluated in MEL-NED (of 11): number of responding patients: HLA-DR4+ melanoma patients with no evidence of disease, n = 11, 20 h IFN-γ ELISPOT
[3] = read-out: Binding affinity (IC50) DRB1*0401
[4] = read-out: Binding affinity (IC50) DRB1*0404

IC50 (HLA-DRB1*0401; [3]) [µM] | Compound | T cell responses evaluated in ND-IVS (of 10): number of responding normal donors (CD4+ T cells [1]) | T cell responses evaluated in MEL (of 5): number of responding patients (CD4+ T cells [2]) | T cell responses evaluated in MEL-NED (of 11): number of responding patients (CD4+ T cells [2]) | also measured
> 10 | VSGLSIGTGRAMLGTHTMEVTVY [gp100/pmel17167-189] |  |  |  | 
> 10 | CC[C@H](C)[C@H](NC(=O)[C@H](CCC(N)=O)NC(=O)[C@H](Cc1c[nH]cn1)NC(=O)[C@H](CC(C)C)NC(=O)[C@@H](NC(=O)[C@H](CC(C)C)NC(=O)[C@H](CCC(N)=O)NC(=O)[C@H](CS)NC(=O)[C@H](C)NC(=O)[C@@H]1CCCN1C(=O)[C@H](CO)NC(=O)[C@@H]1CCCN1C(=O)[C@H](CC(C)C)NC(=O)[C@@H](NC(=O)[C@@H]1CCCN1C(=O)[C@H](CCC(N)=O)NC(=O)[C@H](CS)NC(=O)[C@@H](N)CC(C)C)C(C)C)C(C)C)C(=O)N[C@@H](CC(C)C)C(=O)N[C@@H](CCCCN)C(=O)NCC(=O)NCC(=O)O [gp100/pmel17540-561] (H-LCQPVLPSPACQLVLHQILKGG-OH) |  |  |  | 

The next lines start with the compound.

Compound | IC50 (HLA-DRB1*0401; [3]) [µM] | T cell responses evaluated in ND-IVS (of 10): number of responding normal donors (CD4+ T cells [1]) | T cell responses evaluated in MEL (of 5): number of responding patients (CD4+ T cells [2]) | T cell responses evaluated in MEL-NED (of 11): number of responding patients (CD4+ T cells [2]) | also measured
VYVWKTWGQYWQVLGGPVS [gp100/pmel17150-168] |  | 0 donors (of 10) | 0 patients (of 5) | 0 patients (of 11) | IC50 (HLA-DRB1*0404): > 10 µM; IC50 (HLA-DRB1*0401): > 10 µM
ALHIYMDGTMSQVQGSA [tyrosinase365-381D] |  |  |  |  | IC50 (HLA-DRB1*0404): 0.031 µM; IC50 (HLA-DRB1*0401): 0.017 µM
CC(C)[C@H](NC(=O)[C@H](CO)NC(=O)[C@@H]1CCCN1C(=O)[C@@H](N)Cc1c[nH]c2ccccc12)C(=O)N[C@@H](Cc1ccccc1)C(=O)N[C@@H](Cc1ccc(O)cc1)C(=O)N[C@@H](CC(N)=O)C(=O)N[C@@H](CCCNC(=N)N)C(=O)N[C@H](C(=O)N[C@@H](CS)C(=O)N[C@@H](CCC(N)=O)C(=O)N[C@@H](CS)C(=O)N[C@@H](CO)C(=O)NCC(=O)N[C@@H](CC(N)=O)C(=O)N[C@@H](Cc1ccccc1)C(=O)O)[C@@H](C)O [tyrosinase80-95] (H-WPSVFYNRTCQCSGNF-OH; N-terminus and C-terminus assumed) |  | 0 donors (of 10) | 0 patients (of 5) | 0 patients (of 11) | 
KRCLLHLAVIGALLAVGATKV [gp100/pmel176-26] | > 10 |  |  |  | 
WMHYYVSMDALLGGSEI [tyrosinase178-194, synthetic peptide derived from tyrosinase] |  | 3 donors (of 10) | 1 patients (of 5) | 1 patients (of 11) | immunogen grade on an arbitrary scale (CD4+ T cells [1]; in both melanoma patients and in vitro stimulated normal donors, weak / moderate / strong): moderate
PGPVTAQVVLQAAIPLTSCGSS [gp100/pmel17283-304] |  |  |  |  | IC50 (HLA-DRB1*0404; [4]): 0.051 µM
IVGILLVLMAVVLASLIYRRR [gp100599-619 /pmel17606-626] | > 10 | 0 donors (of 10) | 0 patients (of 5) | 0 patients (of 11) | IC50 (HLA-DRB1*0404; [4]): > 10 µM
